Results: patent US8283361B2 (AstraZeneca AB, priority 2008, dated 2012)

target: S. aureus GyrB ATPase (Staphylococcus aureus, UniProt P0A0K8); experiment: biochemical; conditions: compound at 1 μM; one value per test if tested more than once; 1 µM
Outline: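 IC50 values derive from 10-point titrations of compound (in DMSO). Phosphate formed from 250 μM ATP was quantified by acidic molybdate/malachite green after quenching.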

Sequence of S. aureus GyrB ATPase (P0A0K8 whole entry): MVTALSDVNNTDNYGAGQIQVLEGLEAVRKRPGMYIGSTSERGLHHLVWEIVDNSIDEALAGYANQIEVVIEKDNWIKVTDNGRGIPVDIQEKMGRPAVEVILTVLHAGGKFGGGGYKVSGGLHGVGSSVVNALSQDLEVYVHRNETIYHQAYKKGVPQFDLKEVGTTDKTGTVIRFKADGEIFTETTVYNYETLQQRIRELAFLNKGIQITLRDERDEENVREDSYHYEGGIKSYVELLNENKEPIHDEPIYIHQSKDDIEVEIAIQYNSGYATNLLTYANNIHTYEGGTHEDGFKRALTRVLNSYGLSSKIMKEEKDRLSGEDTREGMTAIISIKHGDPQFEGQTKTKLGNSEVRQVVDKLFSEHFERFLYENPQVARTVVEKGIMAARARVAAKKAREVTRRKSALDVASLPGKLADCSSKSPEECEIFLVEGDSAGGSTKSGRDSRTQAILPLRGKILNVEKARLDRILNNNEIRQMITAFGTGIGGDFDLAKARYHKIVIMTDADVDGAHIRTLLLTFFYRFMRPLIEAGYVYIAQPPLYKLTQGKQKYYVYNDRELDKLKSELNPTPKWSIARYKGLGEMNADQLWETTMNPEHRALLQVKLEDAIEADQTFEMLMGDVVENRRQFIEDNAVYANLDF
Sequence of S. aureus GyrB ATPase (P0AES4 whole entry, further chain): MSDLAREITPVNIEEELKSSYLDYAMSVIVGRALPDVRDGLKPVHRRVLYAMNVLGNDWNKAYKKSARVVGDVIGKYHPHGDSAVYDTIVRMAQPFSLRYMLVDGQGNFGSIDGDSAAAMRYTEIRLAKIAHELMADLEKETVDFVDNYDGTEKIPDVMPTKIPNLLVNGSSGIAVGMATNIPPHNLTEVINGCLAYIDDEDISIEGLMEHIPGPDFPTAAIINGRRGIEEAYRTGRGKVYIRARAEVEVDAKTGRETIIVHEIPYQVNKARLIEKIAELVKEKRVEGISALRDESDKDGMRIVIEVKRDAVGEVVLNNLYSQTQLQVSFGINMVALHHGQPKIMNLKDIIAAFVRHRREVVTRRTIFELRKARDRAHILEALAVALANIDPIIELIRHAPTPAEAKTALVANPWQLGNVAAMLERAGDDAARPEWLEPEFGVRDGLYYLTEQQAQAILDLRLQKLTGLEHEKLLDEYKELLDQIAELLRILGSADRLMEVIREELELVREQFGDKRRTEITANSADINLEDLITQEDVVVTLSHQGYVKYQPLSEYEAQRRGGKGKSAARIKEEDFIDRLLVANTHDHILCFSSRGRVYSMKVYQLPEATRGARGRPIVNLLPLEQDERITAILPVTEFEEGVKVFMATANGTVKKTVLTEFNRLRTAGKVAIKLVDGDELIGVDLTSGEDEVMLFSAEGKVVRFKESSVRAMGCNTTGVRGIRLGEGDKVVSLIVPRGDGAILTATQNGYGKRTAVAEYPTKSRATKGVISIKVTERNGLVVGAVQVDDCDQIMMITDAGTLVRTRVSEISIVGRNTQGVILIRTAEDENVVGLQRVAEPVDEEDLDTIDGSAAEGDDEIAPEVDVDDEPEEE

Compound | % Inhibition of S. aureus GyrB ATPase [%]
CCCNC(=O)Nc1cc(-c2nc(C(F)(F)F)cs2)c(-c2ccc3c(c2)c(=O)c(C(=O)O)cn3CCN(C)C)cn1 [Example 152, 1-(2-(dimethylamino)ethyl)-4-oxo-6-(6-(3-propylureido)-4-(4-(trifluoromethyl)thiazol-2-yl)pyridin-3-yl)-1,4-dihydroquinoline-3-carboxylic acid] | 106

same assay, conditions: compound at 1 μM; one value per test if tested more than once; read-out: % Inhibition of S. aureus GyrB ATPase

Compound | inhibition at 1 µM [%]
CCNC(=O)Nc1cc(-c2nc(C(F)(F)F)cs2)c(-c2ccc3c(c2)c(=O)c(C(=O)NCCCO)cn3C(COC)COC)cn1 [Example 149, 1-(1,3-dimethoxypropan-2-yl)-6-(6-(3-ethylureido)-4-(4-(trifluoromethyl)thiazol-2-yl)pyridin-3-yl)-N-(3-hydroxypropyl)-4-oxo-1,4-dihydroquinoline-3-carboxamide] | 93
CCCNC(=O)Nc1cc(-c2nc(C(F)(F)F)cs2)c(-c2ccc3c(c2)c(=O)c(C(=O)O)cn3CCN(C)C)cn1 [Example 152, 1-(2-(dimethylamino)ethyl)-4-oxo-6-(6-(3-propylureido)-4-(4-(trifluoromethyl)thiazol-2-yl)pyridin-3-yl)-1,4-dihydroquinoline-3-carboxylic acid] | 95
CCCNC(=O)Nc1cc(-c2nc(C(F)(F)F)cs2)c(-c2ccc3c(c2)c(=O)c(C(=O)O)cn3C2CN(C)C2)cn1 [Example 153, 1-(1-methylazetidin-3-yl)-4-oxo-6-(6-(3-propylureido)-4-(4-(trifluoromethyl)thiazol-2-yl)pyridin-3-yl)-1,4-dihydroquinoline-3-carboxylic acid] | 105
CCCNC(=O)Nc1cc(-c2nc(C(F)(F)F)cs2)c(-c2ccc3c(c2)c(=O)c(C(=O)N2CCN(S(=O)(=O)N(C)C)CC2)cn3CCN(C)C)cn1 [Example 154, 4-(1-(2-(dimethylamino)ethyl)-4-oxo-6-(6-(3-propylureido)-4-(4-(trifluoromethyl)thiazol-2-yl)pyridin-3-yl)-1,4-dihydroquinoline-3-carbonyl)-N,N-dimethylpiperazine-1-sulfonamide] | 107
CCNC(=O)Nc1cc(-c2nc(C(F)(F)F)cs2)c(-c2ccc3c(c2)c(=O)c(C(=O)N2CCN(C)CC2)cn3CCN(C)C)cn1 [Example 155, 1-(5-(1-(2-(dimethylamino)ethyl)-3-(4-methylpiperazine-1-carbonyl)-4-oxo-1,4-dihydroquinolin-6-yl)-4-(4-(trifluoromethyl)thiazol-2-yl)pyridin-2-yl)-3-ethylurea] | 94
CCCNC(=O)Nc1cc(-c2nc(C(F)(F)F)cs2)c(-c2ccc3c(c2)c(=O)c(C(=O)N2CCN(C)CC2)cn3CCN(C)C)cn1 [Example 156, 1-(5-(1-(2-(dimethylamino)ethyl)-3-(4-methylpiperazine-1-carbonyl)-4-oxo-1,4-dihydroquinolin-6-yl)-4-(4-(trifluoromethyl)thiazol-2-yl)pyridin-2-yl)-3-propylurea] | 105
CCCNC(=O)Nc1cc(-c2nc(C(F)(F)F)cs2)c(-c2ccc3c(c2)c(=O)c(C(=O)N2CCN(S(C)(=O)=O)CC2)cn3CCN(C)C)cn1 [Example 157, 1-(5-(1-(2-(dimethylamino)ethyl)-3-(4-(methylsulfonyl)piperazine-1-carbonyl)-4-oxo-1,4-dihydroquinolin-6-yl)-4-(4-(trifluoromethyl)thiazol-2-yl)pyridin-2-yl)-3-propylurea] | 103
CCNC(=O)Nc1cc(-c2nc(C(F)(F)F)cs2)c(-c2ccc3c(c2)c(=O)c(C(=O)N2CCNCC2)cn3CCN(C)C)cn1 [Example 158, 1-(5-(1-(2-(dimethylamino)ethyl)-4-oxo-3-(piperazine-1-carbonyl)-1,4-dihydroquinolin-6-yl)-4-(4-(trifluoromethyl)thiazol-2-yl)pyridin-2-yl)-3-ethylurea] | 106
CCNC(=O)Nc1cc(-c2nc(C(F)(F)F)cs2)c(-c2ccc3c(c2)c(=O)c(C(=O)N2CCN(S(=O)(=O)N(C)C)CC2)cn3CCN(C)C)cn1 [Example 159, 4-(1-(2-(dimethylamino)ethyl)-6-(6-(3-ethylureido)-4-(4-(trifluoromethyl)thiazol-2-yl)pyridin-3-yl)-4-oxo-1,4-dihydroquinoline-3-carbonyl)-N,N-dimethylpiperazine-1-sulfonamide] | 105
CCCNC(=O)Nc1cc(-c2nc(C(F)(F)F)cs2)c(-c2ccc3c(c2)c(=O)c(C(=O)N2CCN(C(C)=O)CC2)cn3CCN(C)C)cn1 [Example 160, 1-(5-(3-(4-acetylpiperazine-1-carbonyl)-1-(2-(dimethylamino)ethyl)-4-oxo-1,4-dihydroquinolin-6-yl)-4-(4-(trifluoromethyl)thiazol-2-yl)pyridin-2-yl)-3-propylurea] | 103
CCCNC(=O)Nc1cc(-c2nc(C(F)(F)F)cs2)c(-c2ccc3c(c2)c(=O)c(C(=O)N2CCNCC2)cn3CCN(C)C)cn1 [Example 161, 1-(5-(1-(2-(dimethylamino)ethyl)-4-oxo-3-(piperazine-1-carbonyl)-1,4-dihydroquinolin-6-yl)-4-(4-(trifluoromethyl)thiazol-2-yl)pyridin-2-yl)-3-propylurea] | 101
CCNC(=O)Nc1cc(-c2nc(C(F)(F)F)cs2)c(-c2ccc3c(c2)c(=O)c(C(=O)N2CCN(C(C)=O)CC2)cn3CCN(C)C)cn1 [Example 162, 1-(5-(3-(4-acetylpiperazine-1-carbonyl)-1-(2-(dimethylamino)ethyl)-4-oxo-1,4-dihydroquinolin-6-yl)-4-(4-(trifluoromethyl)thiazol-2-yl)pyridin-2-yl)-3-ethylurea] | 106
CCNC(=O)Nc1cc(-c2nc(C(F)(F)F)cs2)c(-c2ccc3c(c2)c(=O)c(C(=O)N2CCN(S(C)(=O)=O)CC2)cn3C2CN(C)C2)cn1 [Example 163, 1-ethyl-3-(5-(1-(1-methylazetidin-3-yl)-3-(4-(methylsulfonyl)piperazine-1-carbonyl)-4-oxo-1,4-dihydroquinolin-6-yl)-4-(4-(trifluoromethyl)thiazol-2-yl)pyridin-2-yl)urea] | 106
CCCNC(=O)Nc1cc(-c2nc(C(F)(F)F)cs2)c(-c2ccc3c(c2)c(=O)c(C(=O)N2CCN(S(=O)(=O)N(C)C)CC2)cn3C2CN(C)C2)cn1 [Example 164, N,N-dimethyl-4-(1-(1-methylazetidin-3-yl)-4-oxo-6-(6-(3-propylureido)-4-(4-(trifluoromethyl)thiazol-2-yl)pyridin-3-yl)-1,4-dihydroquinoline-3-carbonyl)piperazine-1-sulfonamide] | 107
CCNC(=O)Nc1cc(-c2nc(C(F)(F)F)cs2)c(-c2ccc3c(c2)c(=O)c(C(=O)N2CCN(S(=O)(=O)N(C)C)CC2)cn3C2CN(C)C2)cn1 [Example 165, 4-(6-(6-(3-ethylureido)-4-(4-(trifluoromethyl)thiazol-2-yl)pyridin-3-yl)-1-(1-methylazetidin-3-yl)-4-oxo-1,4-dihydroquinoline-3-carbonyl)-N,N-dimethylpiperazine-1-sulfonamide] | 109
CCCNC(=O)Nc1cc(-c2nc(C(F)(F)F)cs2)c(-c2ccc3c(c2)c(=O)c(C(=O)N2CCNCC2)cn3C2CN(C)C2)cn1 [Example 166, 1-(5-(1-(1-methylazetidin-3-yl)-4-oxo-3-(piperazine-1-carbonyl)-1,4-dihydroquinolin-6-yl)-4-(4-(trifluoromethyl)thiazol-2-yl)pyridin-2-yl)-3-propylurea] | 104
CCNC(=O)Nc1cc(-c2nc(C(F)(F)F)cs2)c(-c2ccc3c(c2)c(=O)c(C(=O)N2CCN(C)CC2)cn3C2CN(C)C2)cn1 [Example 167, 1-ethyl-3-(5-(1-(1-methylazetidin-3-yl)-3-(4-methylpiperazine-1-carbonyl)-4-oxo-1,4-dihydroquinolin-6-yl)-4-(4-(trifluoromethyl)thiazol-2-yl)pyridin-2-yl)urea] | 109
CCCNC(=O)Nc1cc(-c2nc(C(F)(F)F)cs2)c(-c2ccc3c(c2)c(=O)c(C(=O)N2CCN(C(C)=O)CC2)cn3C2CN(C)C2)cn1 [Example 168, 1-(5-(3-(4-acetylpiperazine-1-carbonyl)-1-(1-methylazetidin-3-yl)-4-oxo-1,4-dihydroquinolin-6-yl)-4-(4-(trifluoromethyl)thiazol-2-yl)pyridin-2-yl)-3-propylurea] | 102
CCNC(=O)Nc1cc(-c2nc(C(F)(F)F)cs2)c(-c2ccc3c(c2)c(=O)c(C(=O)N2CCN(C(C)=O)CC2)cn3C2CN(C)C2)cn1 [Example 169, 1-(5-(3-(4-acetylpiperazine-1-carbonyl)-1-(1-methylazetidin-3-yl)-4-oxo-1,4-dihydroquinolin-6-yl)-4-(4-(trifluoromethyl)thiazol-2-yl)pyridin-2-yl)-3-ethylurea] | 105
CCCNC(=O)Nc1cc(-c2nc(C(F)(F)F)cs2)c(-c2ccc3c(c2)c(=O)c(C(=O)N2CCN(S(C)(=O)=O)CC2)cn3C2CN(C)C2)cn1 [Example 170, 1-(5-(1-(1-methylazetidin-3-yl)-3-(4-(methylsulfonyl)piperazine-1-carbonyl)-4-oxo-1,4-dihydroquinolin-6-yl)-4-(4-(trifluoromethyl)thiazol-2-yl)pyridin-2-yl)-3-propylurea] | 102
CCNC(=O)Nc1cc(-c2nc(C(F)(F)F)cs2)c(-c2ccc3c(c2)c(=O)c(C(=O)N2CCNCC2)cn3C2CN(C)C2)cn1 [Example 171, 1-ethyl-3-(5-(1-(1-methylazetidin-3-yl)-4-oxo-3-(piperazine-1-carbonyl)-1,4-dihydroquinolin-6-yl)-4-(4-(trifluoromethyl)thiazol-2-yl)pyridin-2-yl)urea] | 112
CCCNC(=O)Nc1cc(-c2nc(C(F)(F)F)cs2)c(-c2ccc3c(c2)c(=O)c(C(=O)N2CCN(C)CC2)cn3C2CN(C)C2)cn1 [Example 172, 1-(5-(1-(1-methylazetidin-3-yl)-3-(4-methylpiperazine-1-carbonyl)-4-oxo-1,4-dihydroquinolin-6-yl)-4-(4-(trifluoromethyl)thiazol-2-yl)pyridin-2-yl)-3-propylurea] | 107
CC(C)NC(=O)Nc1cc(-c2nc(C(F)(F)F)cs2)c(-c2ccc3c(c2)c(=O)c(C(=O)O)cn3CCN(C)C)cn1 [Example 189, 1-(2-(dimethylamino)ethyl)-7-(6-(3-isopropylureido)-4-(4-(trifluoromethyl)thiazol-2-yl)pyridin-3-yl)-4-oxo-1,4-dihydroquinoline-3-carboxylate] | 100
